Assay results published in PMC9204419, “A Toolbox for the Generation of Chemical Probes for Baculovirus IAP Repeat Containing Proteins” (Frontiers in Cell and Developmental Biology, 2022).
Several values for one entry are separate records, joined by “and”; a condition that tells them apart may be missing. Identical values can stand only once.

Experiments:
BIRC3 BIR3 = BIRC3 BIR3 (Homo sapiens, UniProt Q13489); test: NanoBRET cellular target engagement, single domain BIRC3 BIR3; conditions: Tracer KD,app ± SEM, BIRC3 BIR3, single domain, n = 4
BIRC8 = target: T1, BIRC8 (Homo sapiens, UniProt Q96P09); test: NanoBRET cellular target engagement, full-length BIRC8
T1 sequence (Q96P09 1-236): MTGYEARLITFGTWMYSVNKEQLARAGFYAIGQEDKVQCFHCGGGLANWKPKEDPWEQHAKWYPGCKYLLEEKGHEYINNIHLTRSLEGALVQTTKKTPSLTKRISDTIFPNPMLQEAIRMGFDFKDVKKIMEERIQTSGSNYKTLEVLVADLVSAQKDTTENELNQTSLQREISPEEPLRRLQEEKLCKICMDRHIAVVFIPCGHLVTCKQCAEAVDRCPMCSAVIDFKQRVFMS

BIRC3 BIR2 = BIRC3 BIR2 (Homo sapiens, UniProt Q13489); test: NanoBRET cellular target engagement, single domain BIRC3 BIR2; conditions: Tracer KD,app ± SEM, BIRC3 BIR2, single domain, n = 4
Experimental: (§1) In brief: Constructs contained the cDNA of full-length or single domains cloned in frame with an N-terminal NanoLuc-fusion as specified in Supplementary Table S2. Plasmids were transfected into HEK293T cells using FuGENE HD (Promega, E2312) and proteins were allowed to express for 20 h. […] The corresponding transfected cells were added and reseeded at a density of 2.5^5 cells/mL after trypsinization and resuspending in Opti-MEM without phenol red (Life Technologies). […] Competitive displacement data were then graphed using GraphPad Prism 9.3 software using a normalized 3-parameter curve fit with the following equation: Y = 100/(1 + 10^(X-LogIC50)).

BIRC2 BIR3 = BIRC2 BIR3 (Homo sapiens, UniProt Q13490); test: NanoBRET cellular target engagement, single domain BIRC2 BIR3
Experimental: as §1

BIRC4 BIR2 = target: T2, BIRC4 BIR2 (Homo sapiens, UniProt P98170); test: NanoBRET tracer titration, BIRC4 BIR2; format: cell-based; conditions: single domain, n = 4; read-out: Tracer KD,app ± SEM, BIRC4 BIR2
T2 construct: G144 S253; expressed in transfected cells; host or cells: HEK293T

BIRC2 BIR2 = BIRC2 BIR2 (Homo sapiens, UniProt Q13490); test: NanoBRET cellular target engagement, single domain BIRC2 BIR2; conditions: Tracer KD,app ± SEM, BIRC2 BIR2, single domain, n = 4
Experimental: as §1

BIRC2 BIR1 = target: T3, BIRC2 BIR1 (Homo sapiens, UniProt Q13490); test: NanoBRET tracer titration, BIRC2 BIR1; format: cell-based; conditions: single domain, n = 4; read-out: Tracer KD,app ± SEM, BIRC2 BIR1
T3 construct: D24 S134; expressed in transfected cells; host or cells: HEK293T

BIRC4 = BIRC4 (Homo sapiens, UniProt P98170); test: NanoBRET cellular target engagement, full-length BIRC4
BIRC1 BIR[2] = target: T4, BIRC1 BIR[2] (Homo sapiens, UniProt Q13075); test: NanoBRET cellular target engagement, single domain BIRC1 BIR[2]; conditions: Tracer KD,app ± SEM, BIRC1 BIR[2], single domain (D139-G251), n = 4
T4 sequence (Q13075 139-251): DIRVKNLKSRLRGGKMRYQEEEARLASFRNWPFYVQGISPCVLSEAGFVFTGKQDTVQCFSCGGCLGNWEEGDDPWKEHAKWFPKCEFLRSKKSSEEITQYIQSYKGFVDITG
Experimental: as §1

BIRC7 BIR = target: T5, BIRC7 BIR (Homo sapiens, UniProt Q96CA5); test: NanoBRET cellular target engagement, single domain BIRC7 BIR; conditions: Tracer KD,app ± SEM, BIRC7 BIR, single domain, n = 4
T5 sequence (Q96CA5 70-176): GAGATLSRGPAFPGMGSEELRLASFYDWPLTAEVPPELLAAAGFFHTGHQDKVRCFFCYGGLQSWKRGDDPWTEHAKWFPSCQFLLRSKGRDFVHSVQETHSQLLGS

BIRC1 BIR1 = target: T6, BIRC1 BIR1 (Homo sapiens, UniProt Q13075); test: NanoBRET tracer titration, BIRC1 BIR1 (third BIR domain of BIRC1); format: cell-based; conditions: third BIR domain of BIRC1 (N256-Q391), n = 4; read-out: Tracer KD,app ± SEM, BIRC1 BIR1
T6 construct: N256 Q391; expressed in transfected cells; host or cells: HEK293T

BIRC5 = target: T7, BIRC5 (Homo sapiens, UniProt O15392); test: NanoBRET tracer titration, BIRC5; format: cell-based; conditions: full-length taken as single BIR domain construct, n = 4; read-out: Tracer KD,app ± SEM, BIRC5
T7 construct: M1 D142; expressed in transfected cells; host or cells: HEK293T

BIRC2 = BIRC2 (Homo sapiens, UniProt Q13490); test: NanoBRET cellular target engagement, full-length BIRC2; conditions: Tracer K D, full-length BIRC2, full-length
BIRC4 BIR1 = target: T8, BIRC4 BIR1 (Homo sapiens, UniProt P98170); test: NanoBRET tracer titration, BIRC4 BIR1; format: cell-based; conditions: single domain, n = 4; read-out: Tracer KD,app ± SEM, BIRC4 BIR1
T8 construct: N4 Q114; expressed in transfected cells; host or cells: HEK293T

BIRC8 BIR = target: T9, BIRC8 BIR (Homo sapiens, UniProt Q96P09); test: NanoBRET cellular target engagement, single domain BIRC8 BIR
T9 sequence (Q96P09 1-90): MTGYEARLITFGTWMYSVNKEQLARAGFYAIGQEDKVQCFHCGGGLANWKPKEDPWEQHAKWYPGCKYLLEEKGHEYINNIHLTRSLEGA
Experimental: as §1

BIRC3 BIR1 = target: T10, BIRC3 BIR1 (Homo sapiens, UniProt Q13489); test: NanoBRET tracer titration, BIRC3 BIR1; format: cell-based; conditions: single domain, n = 4; read-out: Tracer KD,app ± SEM, BIRC3 BIR1
T10 construct: N6 S116; expressed in transfected cells; host or cells: HEK293T

BIRC4 BIR3 = target: T11, BIRC4 BIR3 (Homo sapiens, UniProt P98170); test: NanoBRET tracer titration, BIRC4 BIR3; format: cell-based; conditions: single domain, n = 4; read-out: Tracer KD,app ± SEM, BIRC4 BIR3
T11 construct: S245 N373; expressed in transfected cells; host or cells: HEK293T

BIRC7 = target: T12, BIRC7 (Homo sapiens, UniProt Q96CA5); test: NanoBRET cellular target engagement, full-length BIRC7
T12 sequence (Q96CA5 1-298): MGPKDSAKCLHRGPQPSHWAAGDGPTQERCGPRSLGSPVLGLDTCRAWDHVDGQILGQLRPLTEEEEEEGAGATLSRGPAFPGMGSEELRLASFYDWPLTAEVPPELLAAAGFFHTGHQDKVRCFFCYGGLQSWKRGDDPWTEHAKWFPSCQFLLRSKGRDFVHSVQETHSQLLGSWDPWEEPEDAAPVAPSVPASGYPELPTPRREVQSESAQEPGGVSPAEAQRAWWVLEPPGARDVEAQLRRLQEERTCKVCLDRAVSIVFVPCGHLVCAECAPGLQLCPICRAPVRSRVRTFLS
Experimental: as §1

BIRC3 = BIRC3 (Homo sapiens, UniProt Q13489); test: NanoBRET cellular target engagement, full-length BIRC3
Sequence of BIRC3 (Q13489 whole entry): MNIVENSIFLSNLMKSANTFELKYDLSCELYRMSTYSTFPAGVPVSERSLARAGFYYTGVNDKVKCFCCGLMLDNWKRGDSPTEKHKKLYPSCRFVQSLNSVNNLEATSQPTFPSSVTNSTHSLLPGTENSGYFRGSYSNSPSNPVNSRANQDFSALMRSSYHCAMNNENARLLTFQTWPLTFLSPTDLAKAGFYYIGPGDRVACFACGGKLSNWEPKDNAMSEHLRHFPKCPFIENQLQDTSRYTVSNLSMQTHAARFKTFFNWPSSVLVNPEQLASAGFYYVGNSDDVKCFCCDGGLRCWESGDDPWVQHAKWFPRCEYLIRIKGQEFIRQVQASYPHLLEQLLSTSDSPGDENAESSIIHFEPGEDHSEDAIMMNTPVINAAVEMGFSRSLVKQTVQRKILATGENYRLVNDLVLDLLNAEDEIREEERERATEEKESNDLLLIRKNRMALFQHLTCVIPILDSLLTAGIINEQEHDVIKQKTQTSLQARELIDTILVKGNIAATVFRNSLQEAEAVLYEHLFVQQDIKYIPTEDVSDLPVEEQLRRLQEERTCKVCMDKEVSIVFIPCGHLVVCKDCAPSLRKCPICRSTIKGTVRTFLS
Experimental: as §1

T6 sequence (Q13075 256-391): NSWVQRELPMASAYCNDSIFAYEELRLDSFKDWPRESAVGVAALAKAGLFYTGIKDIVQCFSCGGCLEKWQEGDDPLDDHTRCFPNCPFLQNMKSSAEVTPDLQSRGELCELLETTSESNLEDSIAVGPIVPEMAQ
Sequence of BIRC4 (P98170 whole entry, the tested form may be a part): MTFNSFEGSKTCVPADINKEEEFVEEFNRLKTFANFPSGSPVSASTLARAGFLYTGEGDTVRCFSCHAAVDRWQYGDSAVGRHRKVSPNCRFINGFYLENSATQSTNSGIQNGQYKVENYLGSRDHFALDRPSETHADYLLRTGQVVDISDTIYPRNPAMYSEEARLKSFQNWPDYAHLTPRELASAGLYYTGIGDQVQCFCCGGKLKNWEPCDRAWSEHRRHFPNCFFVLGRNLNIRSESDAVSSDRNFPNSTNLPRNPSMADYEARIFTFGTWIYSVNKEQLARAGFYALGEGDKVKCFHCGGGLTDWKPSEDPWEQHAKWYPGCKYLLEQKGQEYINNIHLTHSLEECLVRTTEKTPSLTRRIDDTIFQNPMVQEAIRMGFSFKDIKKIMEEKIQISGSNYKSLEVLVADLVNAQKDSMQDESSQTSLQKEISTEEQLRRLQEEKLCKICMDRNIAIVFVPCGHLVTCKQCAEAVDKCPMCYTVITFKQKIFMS
T7 sequence (O15392 whole entry, the tested form may be a part): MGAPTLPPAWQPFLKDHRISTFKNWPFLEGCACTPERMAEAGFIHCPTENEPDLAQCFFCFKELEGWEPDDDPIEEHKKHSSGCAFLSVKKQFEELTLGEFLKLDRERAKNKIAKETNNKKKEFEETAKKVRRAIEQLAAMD
T3 sequence (Q13490 24-134): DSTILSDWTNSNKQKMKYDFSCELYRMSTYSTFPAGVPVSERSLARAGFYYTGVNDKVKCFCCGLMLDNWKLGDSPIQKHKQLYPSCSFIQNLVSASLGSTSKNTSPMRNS
Sequence of BIRC2 BIR3 (Q13490 251-372): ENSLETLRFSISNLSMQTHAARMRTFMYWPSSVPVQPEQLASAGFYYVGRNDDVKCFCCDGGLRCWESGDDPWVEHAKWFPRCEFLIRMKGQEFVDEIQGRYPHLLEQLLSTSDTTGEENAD
T2 sequence (P98170 144-253): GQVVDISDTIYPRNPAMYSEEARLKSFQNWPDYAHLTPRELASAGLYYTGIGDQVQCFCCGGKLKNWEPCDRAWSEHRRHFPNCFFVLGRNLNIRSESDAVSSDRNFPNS
T8 sequence (P98170 4-114): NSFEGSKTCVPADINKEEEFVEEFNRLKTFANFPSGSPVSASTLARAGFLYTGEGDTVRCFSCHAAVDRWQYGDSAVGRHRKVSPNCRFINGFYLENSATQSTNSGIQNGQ
Sequence of BIRC2 (Q13490 whole entry, the tested form may be a part): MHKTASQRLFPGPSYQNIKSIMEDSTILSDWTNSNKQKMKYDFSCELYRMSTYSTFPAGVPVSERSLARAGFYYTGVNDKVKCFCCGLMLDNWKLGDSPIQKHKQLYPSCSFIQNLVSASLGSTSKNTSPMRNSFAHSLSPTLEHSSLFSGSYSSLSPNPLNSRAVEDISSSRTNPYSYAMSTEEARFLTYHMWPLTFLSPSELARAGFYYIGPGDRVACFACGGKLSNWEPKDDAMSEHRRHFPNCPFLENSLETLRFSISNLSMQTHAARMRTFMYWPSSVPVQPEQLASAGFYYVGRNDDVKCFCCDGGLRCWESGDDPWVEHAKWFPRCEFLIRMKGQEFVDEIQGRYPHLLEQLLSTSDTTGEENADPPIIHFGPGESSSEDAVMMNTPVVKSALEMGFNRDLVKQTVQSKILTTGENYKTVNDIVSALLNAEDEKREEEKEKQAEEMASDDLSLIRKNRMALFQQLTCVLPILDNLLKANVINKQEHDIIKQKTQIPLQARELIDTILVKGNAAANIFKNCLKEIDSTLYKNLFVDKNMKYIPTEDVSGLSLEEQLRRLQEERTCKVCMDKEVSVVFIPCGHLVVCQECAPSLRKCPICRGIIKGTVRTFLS
Sequence of BIRC3 BIR3 (Q13489 236-360): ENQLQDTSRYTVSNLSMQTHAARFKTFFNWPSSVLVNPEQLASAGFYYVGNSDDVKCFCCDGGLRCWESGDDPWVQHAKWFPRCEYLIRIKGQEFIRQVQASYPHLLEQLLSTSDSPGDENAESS
Sequence of BIRC2 BIR2 (Q13490 165-267): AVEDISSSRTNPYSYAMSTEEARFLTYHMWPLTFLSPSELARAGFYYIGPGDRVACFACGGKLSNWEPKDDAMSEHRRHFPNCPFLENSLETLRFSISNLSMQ
T10 sequence (Q13489 6-116): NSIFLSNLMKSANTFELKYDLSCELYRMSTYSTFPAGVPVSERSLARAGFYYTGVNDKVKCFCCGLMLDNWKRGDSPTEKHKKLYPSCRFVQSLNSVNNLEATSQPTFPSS
T11 sequence (P98170 245-373): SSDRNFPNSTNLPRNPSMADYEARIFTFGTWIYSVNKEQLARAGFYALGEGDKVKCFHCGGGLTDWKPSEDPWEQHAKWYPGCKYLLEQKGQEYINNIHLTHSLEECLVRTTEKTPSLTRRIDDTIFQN
Sequence of BIRC3 BIR2 (Q13489 147-253): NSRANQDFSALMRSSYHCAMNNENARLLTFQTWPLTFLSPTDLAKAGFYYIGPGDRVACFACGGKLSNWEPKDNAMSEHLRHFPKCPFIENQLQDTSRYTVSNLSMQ

CNC(C)C(=O)NC(C(=O)N1CCCC1c1nc(C(=O)c2cccc(OCCOCCOCCNC(=O)CCc3ccc4n3[B-](F)(F)[N+]3=C(c5ccc[nH]5)C=CC3=C4)c2)cs1)C1CCCCC1 (centres unmarked) [IAP Tracer]
Kd (BIRC3 BIR3): 380 nM and < 1000 nM | Kd (BIRC8): 1060 ± 350 nM | Kd (BIRC3 BIR2): 1670 nM and > 1000 nM | Kd (BIRC2 BIR3; Tracer K D, app, BIRC2-BIR3 domain, single domain): 50 ± 10 nM | Kd (BIRC2 BIR3; Tracer KD,app ± SEM, BIRC2 BIR3, single domain, n = 4): < 1000 nM | Kd (BIRC4 BIR2): > 4000 nM | Kd (BIRC2 BIR2): 2600 nM and > 1000 nM | Kd (BIRC2 BIR1): 2420 nM and > 1000 nM | Kd (BIRC4; Tracer K D, full-length BIRC4, full-length): < 250 nM | Kd (BIRC4; Tracer KD,app ± SEM, BIRC4, full-length, n = 4): 40 nM | Kd (BIRC1 BIR[2]): 1790 nM and > 1000 nM | Kd (BIRC7 BIR): 540 nM and < 1000 nM | Kd (BIRC1 BIR1): < 4000 nM and > 4000 nM and > 1000 nM | Kd (BIRC5): > 4000 nM | Kd (BIRC2): < 250 nM and 20 nM | Kd (BIRC4 BIR1): 2750 nM and > 1000 nM | Kd (BIRC8 BIR): 2760 ± 340 nM | Kd (BIRC3 BIR1): 2310 nM and > 1000 nM | Kd (BIRC4 BIR3): > 4000 nM | Kd (BIRC7; Tracer K D, full-length BIRC7, full-length): < 250 nM | Kd (BIRC7; Tracer KD,app ± SEM, BIRC7, full-length, n = 4): 250 ± 20 nM | Kd (BIRC3; Tracer K D, full-length BIRC3, full-length): < 250 nM | Kd (BIRC3; Tracer KD,app ± SEM, BIRC3, full-length, n = 4): 190 ± 30 nM
